From patent publication US8877748B2, “Heterocyclic fused anthraquinone derivatives, manufacturing method and pharmaceutical composition using thereof” (National Defense Medical Center, priority 2012, dated 2014)

Assays:
[1] = system: PC-3 prostate cancer cell line; experiment: SRB assay cell viability, PC-3 prostate cancer cell line; format: cell-based, human; settings: Homo sapiens, PC-3 prostate cancer cell line, Table II prints no unit, μM printed, read-out: SRB assay: 50% inhibition of cancer cell proliferation of sample concentration (IC50) of PC-3 prostate cancer cell line
CCRF-CEM = experiment: NCI screening platform one-dose single concentration screening, leukemia CCRF-CEM; format: cell-based, human; settings: 10 μM
HL-60, TB = experiment: NCI one-dose screening, leukemia HL-60, TB; format: cell-based, human; settings: 10 μM
MOLT-4 = experiment: NCI one-dose screening, leukemia MOLT-4; format: cell-based, human; settings: 10 μM
SR = experiment: NCI one-dose screening, leukemia SR; format: cell-based, human; settings: 10 μM
PRMI-8226 cell line = experiment: NCI one-dose screening, leukemia PRMI-8226; format: cell-based, human; settings: 10 μM
K562cell line = experiment: NCI one-dose screening, leukemia K562; format: cell-based, human; settings: 10 μM
EKVX = experiment: NCI one-dose screening, non-small cell lung cancer EKVX; format: cell-based, human; settings: 10 μM
HOP-62 = experiment: NCI one-dose screening, non-small cell lung cancer HOP-62; format: cell-based, human; settings: 10 μM
NCI-H226 = experiment: NCI one-dose screening, non-small cell lung cancer NCI-H226; format: cell-based, human; settings: 10 μM
NCI-H23 = experiment: NCI one-dose screening, non-small cell lung cancer NCI-H23; format: cell-based, human; settings: 10 μM
NCI-H322M = experiment: NCI one-dose screening, non-small cell lung cancer NCI-H322M; format: cell-based, human; settings: 10 μM; Non-small cell lung cancer
NCI-H460 = experiment: NCI one-dose screening, non-small cell lung cancer NCI-H460; format: cell-based, human; settings: 10 μM
NCI-H522 = experiment: NCI one-dose screening, non-small cell lung cancer NCI-H522; format: cell-based, human; settings: 10 μM
A549/ATCC = experiment: NCI one-dose screening, non-small cell lung cancer A549/ATCC; format: cell-based, human; settings: 10 μM
COLO 205 = experiment: NCI one-dose screening, colon cancer COLO 205; format: cell-based, human; settings: 10 μM
HCC-2998 = experiment: NCI one-dose screening, colon cancer HCC-2998; format: cell-based, human; settings: 10 μM
HCT-116 = experiment: NCI one-dose screening, colon cancer HCT-116; format: cell-based, human; settings: 10 μM
HCT-15 = experiment: NCI one-dose screening, colon cancer HCT-15; format: cell-based, human; settings: 10 μM
KM12 = experiment: NCI one-dose screening, colon cancer KM12; format: cell-based, human; settings: 10 μM
HT29 = experiment: NCI one-dose screening, colon cancer HT29; format: cell-based, human; settings: 10 μM
SF-268 = experiment: NCI one-dose screening, CNS cancer SF-268; format: cell-based, human; settings: 10 μM
SF-295 = experiment: NCI one-dose screening, CNS cancer SF-295; format: cell-based, human; settings: 10 μM
SF-539 = experiment: NCI one-dose screening, CNS cancer SF-539; format: cell-based, human; settings: 10 μM
SNB-19 = experiment: NCI one-dose screening, CNS cancer SNB-19; format: cell-based, human; settings: 10 μM
SNB-75 = experiment: NCI one-dose screening, CNS cancer SNB-75; format: cell-based, human; settings: 10 μM
U251 = experiment: NCI one-dose screening, CNS cancer U251; format: cell-based, human; settings: 10 μM
LOX IMVI = experiment: NCI one-dose screening, melanoma LOX IMVI; format: cell-based, human; settings: 10 μM
MALME-3M = experiment: NCI one-dose screening, melanoma MALME-3M; format: cell-based, human; settings: 10 μM
M14 = experiment: NCI one-dose screening, melanoma M14; format: cell-based, human; settings: 10 μM
UACC-62 = experiment: NCI one-dose screening, melanoma UACC-62; format: cell-based, human; settings: 10 μM
UACC-257 = experiment: NCI one-dose screening, melanoma UACC-257; format: cell-based, human; settings: 10 μM
SK-MEL-2 = experiment: NCI one-dose screening, melanoma SK-MEL-2; format: cell-based, human; settings: 10 μM
SK-MEL-28 = experiment: NCI one-dose screening, melanoma SK-MEL-28; format: cell-based, human; settings: 10 μM
SK-MEL-5 = experiment: NCI one-dose screening, melanoma SK-MEL-5; format: cell-based, human; settings: 10 μM
IGROV1 = experiment: NCI one-dose screening, ovarian cancer IGROV1; format: cell-based, human; settings: 10 μM
OVCAR-3 = experiment: NCI one-dose screening, ovarian cancer OVCAR-3; format: cell-based, human; settings: 10 μM
OVCAR-4 = experiment: NCI one-dose screening, ovarian cancer OVCAR-4; format: cell-based, human; settings: 10 μM
OVCAR-5 = experiment: NCI one-dose screening, ovarian cancer OVCAR-5; format: cell-based, human; settings: 10 μM
OVCAR-8 = experiment: NCI one-dose screening, ovarian cancer OVCAR-8; format: cell-based, human; settings: 10 μM
786-O = experiment: NCI one-dose screening, renal cancer 786-O; format: cell-based, human; settings: 10 μM
CAKI-1 = experiment: NCI one-dose screening, renal cancer CAKI-1; format: cell-based, human; settings: 10 μM
ACHN = experiment: NCI one-dose screening, renal cancer ACHN; format: cell-based, human; settings: 10 μM
SN12C = experiment: NCI one-dose screening, renal cancer SN12C; format: cell-based, human; settings: 10 μM
TK-10 = experiment: NCI one-dose screening, renal cancer TK-10; format: cell-based, human; settings: 10 μM
RXF, 393 = experiment: NCI one-dose screening, renal cancer RXF, 393; format: cell-based, human; settings: 10 μM
NCl/ADR-RES = experiment: NCI one-dose screening, breast cancer NCl/ADR-RES; format: cell-based, human; settings: 10 μM; listed under Ovarian cancer

Cc1ccccc1Nc1cc2c(c3nsnc13)C(=O)c1ccccc1C2=O [C61, 4-(o-tolylamino)anthra[2,1-c][1,2,5] thiadiazol-6,11-dione]
IC50 [1]: 0.21 µM | Growth Percent CCRF-CEM (CCRF-CEM): 17.83% | Growth Percent HL-60(TB) (HL-60, TB): 1.11% | Growth Percent MOLT-4 (MOLT-4): −11.92% | Growth Percent SR (SR): −15.27% | Growth Percent RPMI-8226 (PRMI-8226 cell line): 16.20% | Growth Percent K562 (K562cell line): 16.97% | Growth Percent EKVX (EKVX): 62.56% | Growth Percent HOP-62 (HOP-62): 40.78% | Growth Percent NCI-H226 (NCI-H226): 47.00% | Growth Percent NCI-H23 (NCI-H23): 37.57% | Growth Percent NCI-H322M (NCI-H322M): 64.54% | Growth Percent NCI-H460 (NCI-H460): 11.85% | Growth Percent NCI-H522 (NCI-H522): 12.41% | Growth Percent A549/ATCC (A549/ATCC): 27.13% | Growth Percent COLO 205 (COLO 205): 83.39% | Growth Percent HCC-2998 (HCC-2998): 57.61% | Growth Percent HCT-116 (HCT-116): 24.23% | Growth Percent HCT-15 (HCT-15): 28.74% | Growth Percent KM12 (KM12): 40.14% | Growth Percent HT29 (HT29): 52.64% | Growth Percent SF-268 (SF-268): 39.57% | Growth Percent SF-295 (SF-295): 34.71% | Growth Percent SF-539 (SF-539): 47.90% | Growth Percent SNB-19 (SNB-19): 61.89% | Growth Percent SNB-75 (SNB-75): 43.18% | Growth Percent U251 (U251): 19.18% | Growth Percent LOX IMVI (LOX IMVI): 8.17% | Growth Percent MALME-3M (MALME-3M): 64.72% | Growth Percent M14 (M14): 61.89% | Growth Percent UACC-62 (UACC-62): 57.68% | Growth Percent UACC-257 (UACC-257): 33.79% | Growth Percent SK-MEL-2 (SK-MEL-2): 32.64% | Growth Percent SK-MEL-28 (SK-MEL-28): 53.13% | Growth Percent SK-MEL-5 (SK-MEL-5): 8.03% | Growth Percent IGROV1 (IGROV1): 25.29% | Growth Percent OVCAR-3 (OVCAR-3): 22.37% | Growth Percent OVCAR-4 (OVCAR-4): −5.69% | Growth Percent OVCAR-5 (OVCAR-5): 79.06% | Growth Percent OVCAR-8 (OVCAR-8): 22.87% | Growth Percent 786-0 (786-O): 63.62% | Growth Percent CAKI-1 (CAKI-1): 27.55% | Growth Percent ACHN (ACHN): 38.07% | Growth Percent SN12C (SN12C): 46.94% | Growth Percent TK-10 (TK-10): 63.75% | Growth Percent RXF 393 (RXF, 393): 45.35% | Growth Percent NCI/ADR-RES (NCl/ADR-RES): 28.36% | melting point: 177 to 178 °C
